Data: ChEMBL document CHEMBL2406915, “Antimalarial and cytotoxic activities of chiral triamines” (Bioorg Med Chem Lett, 2013)
Converted amounts (≈) assume the structure as drawn.

Assays:
[1] = Toxicity index, ratio of ED50 for human KB cells to ED50 for […] Plasmodium falciparum 3D7; assay type: cell-based; conditions: KB cells versus Plasmodium falciparum 3D7, read-out: Ratio ED50
[2] = Cytotoxicity against human KB cells; assay type: cell-based; conditions: read-out: ED50 (the source's name)
Plasmodium falciparum = experiment: Antimalarial activity against […] Plasmodium falciparum 3D7; assay type: functional, organism-based; conditions: for EC50: read-out: ED50 (the source's name)

Work on `CNC[C@H](Cc1ccc2ccccc2c1)NC[C@@H](Cc1ccc2ccccc2c1)NCCc1ccc(Cl)c(Cl)c1` yielded a selectivity ratio [1] of 23, a CC50 [2] of 5.53 µg/mL (≈ 9.69 µM) and an EC50 (Plasmodium falciparum) of 0.24 µg/mL (≈ 0.421 µM).

For `CCOc1ccc(CCN[C@H](CN[C@@H](CNC)CC2CCCCC2)Cc2ccc3ccccc3c2)cc1`, the selectivity ratio [1] was 19.3, the CC50 [2] was 3.1 µg/mL (≈ 6.18 µM) and the EC50 (Plasmodium falciparum) was 0.16 µg/mL (≈ 0.319 µM).

Compound `CNC[C@H](Cc1ccc2ccccc2c1)NC[C@H](Cc1ccc2ccccc2c1)NCC(C)c1ccc(CC(C)C)cc1` (stereo not given in full) has a selectivity ratio [1] of 11.6, a CC50 [2] of 2.09 µg/mL (≈ 3.65 µM) and an EC50 (Plasmodium falciparum) of 0.18 µg/mL (≈ 0.315 µM).

`CNC[C@@H](Cc1ccccc1)NC[C@@H](Cc1ccc2ccccc2c1)NCC1CCC(C)CC1` (stereo not given in full) showed a selectivity ratio [1] of 8.23, a CC50 [2] of 1.73 µg/mL (≈ 3.78 µM) and an EC50 (Plasmodium falciparum) of 0.22 µg/mL (≈ 0.481 µM).

`CNC[C@@H](Cc1ccccc1)NC[C@H](Cc1ccc2ccccc2c1)NCC1(c2ccccc2)CC1` gave a selectivity ratio [1] of 2.36, a CC50 [2] of 0.52 µg/mL (≈ 1.09 µM) and an EC50 (Plasmodium falciparum) of 0.22 µg/mL (≈ 0.461 µM).

For `CNC[C@@H](CC1CCCCC1)NC[C@@H](Cc1ccc2ccccc2c1)NCCc1ccc(Cl)c(Cl)c1`, the selectivity ratio [1] was 19.2, the CC50 [2] was 4.23 µg/mL (≈ 8.03 µM) and the EC50 (Plasmodium falciparum) was 0.22 µg/mL (≈ 0.418 µM).

`CNC[C@@H](Cc1ccccc1)NC[C@@H](Cc1ccc2ccccc2c1)NCC1(c2ccccc2)CC1` gave a selectivity ratio [1] of 5.46, a CC50 [2] of 1.53 µg/mL (≈ 3.2 µM) and an EC50 (Plasmodium falciparum) of 0.28 µg/mL (≈ 0.586 µM).

In the case of `CNC[C@@H](Cc1ccc2ccccc2c1)NC[C@H](Cc1ccc2ccccc2c1)NCC1(c2ccccc2)CC1`, the selectivity ratio [1] is reported as 4.93, the CC50 [2] is reported as 1.43 µg/mL (≈ 2.71 µM) and the EC50 (Plasmodium falciparum) is reported as 0.29 µg/mL (≈ 0.549 µM).

In the case of `CNC[C@@H](CC1CCCCC1)NC[C@@H](Cc1ccc2ccccc2c1)NCC(C)c1ccc(CC(C)C)cc1` (stereo not given in full), the selectivity ratio [1] is reported as 24.1, the CC50 [2] is reported as 7.01 µg/mL (≈ 13.3 µM) and the EC50 (Plasmodium falciparum) is reported as 0.29 µg/mL (≈ 0.549 µM).

Compound `CNC[C@H](Cc1ccc2ccccc2c1)NC[C@H](Cc1ccc2ccccc2c1)NCCC1CCCCC1` has a selectivity ratio [1] of 88.5, a CC50 [2] of 1.77 µg/mL (≈ 3.49 µM) and an EC50 (Plasmodium falciparum) of 0.02 µg/mL (≈ 0.0394 µM).

Work on `CNC[C@H](Cc1ccc2ccccc2c1)NC[C@@H](Cc1ccc2ccccc2c1)NCC1(c2ccccc2)CC1` yielded a selectivity ratio [1] of 32, a CC50 [2] of 1.6 µg/mL (≈ 3.03 µM) and an EC50 (Plasmodium falciparum) of 0.05 µg/mL (≈ 0.0947 µM).

For `CNC[C@H](Cc1ccc2ccccc2c1)NC[C@H](Cc1ccc2ccccc2c1)NCC1(c2ccccc2)CC1`, the selectivity ratio [1] was 43.5, the CC50 [2] was 2.18 µg/mL (≈ 4.13 µM) and the EC50 (Plasmodium falciparum) was 0.05 µg/mL (≈ 0.0947 µM).

Work on `CNC[C@H](Cc1ccc2ccccc2c1)NC[C@@H](Cc1ccc2ccccc2c1)NCCC1CCCCC1` yielded a selectivity ratio [1] of 17.7, a CC50 [2] of 1.6 µg/mL (≈ 3.15 µM) and an EC50 (Plasmodium falciparum) of 0.09 µg/mL (≈ 0.177 µM).

`CNC[C@H](Cc1ccc2ccccc2c1)NC[C@@H](Cc1ccc2ccccc2c1)NCC1CCC(C)CC1` (stereo not given in full) gave a selectivity ratio [1] of 20.3, a CC50 [2] of 2.03 µg/mL (≈ 4 µM) and an EC50 (Plasmodium falciparum) of 0.1 µg/mL (≈ 0.197 µM).

For `CNC[C@@H](CC1CCCCC1)NC[C@H](Cc1ccc2ccccc2c1)NCC1CCC(C)CC1` (stereo not given in full), the selectivity ratio [1] was 69, the CC50 [2] was 6.9 µg/mL (≈ 14.9 µM) and the EC50 (Plasmodium falciparum) was 0.1 µg/mL (≈ 0.216 µM).

With `CNC[C@@H](CC1CCCCC1)NC[C@H](Cc1ccc2ccccc2c1)NCC1(c2ccccc2)CC1` the selectivity ratio [1] was 15.7, the CC50 [2] was 1.71 µg/mL (≈ 3.53 µM) and the EC50 (Plasmodium falciparum) was 0.11 µg/mL (≈ 0.227 µM).

`CNC[C@@H](CC1CCCCC1)NC[C@H](Cc1ccc2ccccc2c1)NCCC1CCCCC1` showed a CC50 [2] of 0.11 µg/mL (≈ 0.237 µM) and an EC50 (Plasmodium falciparum) of 0.11 µg/mL (≈ 0.237 µM).

`CCOc1ccc(CCN[C@H](CN[C@H](CNC)Cc2ccc3ccccc3c2)Cc2ccc3ccccc3c2)cc1` gave a selectivity ratio [1] of 26, a CC50 [2] of 3.23 µg/mL (≈ 5.92 µM) and an EC50 (Plasmodium falciparum) of 0.12 µg/mL (≈ 0.22 µM).

Work on `CNC[C@H](Cc1ccc2ccccc2c1)NC[C@@H](Cc1ccc2ccccc2c1)NCC(C)c1ccc(CC(C)C)cc1` (stereo not given in full) yielded a selectivity ratio [1] of 13, a CC50 [2] of 1.71 µg/mL (≈ 2.99 µM) and an EC50 (Plasmodium falciparum) of 0.13 µg/mL (≈ 0.227 µM).

Work on `CNC[C@@H](CC1CCCCC1)NC[C@@H](Cc1ccc2ccccc2c1)NCCC1CCCCC1` yielded a selectivity ratio [1] of 11.3, a CC50 [2] of 1.59 µg/mL (≈ 3.43 µM) and an EC50 (Plasmodium falciparum) of 0.14 µg/mL (≈ 0.302 µM).

`C[C@H]1[C@H](OC(=O)CCC(=O)O)O[C@@H]2O[C@@]3(C)CC[C@H]4[C@H](C)CC[C@@H]1[C@@]24OO3` [ARTESUNATE] gave an IC50 (Plasmodium falciparum) of 0.002 µg/mL (≈ 0.0052 µM).
